Experiment in all cases: relative viability (nuclei count vs DMSO), 5 days (fraction); higher = more cells survive
Compound in the assay “Salubrinal + OSI-027”: O=C(/C=C/c1ccccc1)NC(NC(=S)Nc1cccc2cccnc12)C(Cl)(Cl)Cl [Salubrinal] + COc1cccc2cc(-c3nc([C@H]4CC[C@H](C(=O)O)CC4)n4ncnc(N)c34)[nH]c12 [OSI-027] (partner 0.5 µM)
Summed up:
(§1)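 The day after seeding in 1536-well plates, lung cancer cell lines were treated by pin tool with a single drug, or with a fixed anchor-drug dose together with five library-drug doses (not always all listed) in √10 steps. After 5 days, a combined fix-and-stain solution (final 0.05% Triton X-100, 1% formaldehyde, 1 ug/ml Hoechst) was added. Nuclei counted on 4× images gave relative viability as treated counts over vehicle counts, reported as the median of duplicate plates.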

Compound in the assay “Salubrinal + Decitabine”: O=C(/C=C/c1ccccc1)NC(NC(=S)Nc1cccc2cccnc12)C(Cl)(Cl)Cl [Salubrinal] + Nc1ncn([C@H]2C[C@H](O)[C@@H](CO)O2)c(=O)n1 [Decitabine] (partner 2 µM)
A digest of the protocol: as §1

Compound in assay [1]: Cc1ccc2nc(NCCN)c3ncc(C)n3c2c1 + O=C(CCCCCCC(=O)Nc1ccccc1)NO [Vorinostat] (partner 1 µM)
Summed up: as §1

Compound in assay [2]: Cc1ccc2nc(NCCN)c3ncc(C)n3c2c1 + CC(C)C[C@H](NC(=O)[C@H](Cc1ccccc1)NC(=O)c1cnccn1)B(O)O [Bortezomib] (partner 0.002 µM)
A digest of the protocol:
as §1

Consider UMC-11, for which the relative viability is 0.498 with Salubrinal + OSI-027 (first compound 0.08 µM); 0.399 with Salubrinal + OSI-027 (first compound 0.253 µM); 0.548 with Salubrinal + OSI-027 (first compound 0.8 µM); 0.46 with Salubrinal + OSI-027 (first compound 2.53 µM); 0.455 in the assay with Salubrinal + OSI-027 (first compound 8 µM); 0.548 with Salubrinal + Decitabine (first compound 0.08 µM). For the same cell line, the relative viability with Salubrinal + Decitabine (first compound 0.253 µM) stood at 0.608; with Salubrinal + Decitabine (first compound 0.8 µM), 0.674; in the assay with Salubrinal + Decitabine (first compound 2.53 µM), 0.606; with Salubrinal + Decitabine (first compound 8 µM), 0.561; in assay [1] (first compound 0.04 µM), 0.421; in assay [1] (first compound 0.1265 µM), 0.344. In addition, the relative viability is 0.372 in assay [1] (first compound 0.4 µM); 0.371 in assay [1] (first compound 1.265 µM); 0.357 in assay [1] (first compound 4 µM); 0.818 in assay [2] (first compound 0.04 µM); 0.809 in assay [2] (first compound 0.1265 µM); 0.667 in assay [2] (first compound 0.4 µM). For the same cell line, the relative viability was 0.795 in assay [2] (first compound 1.265 µM) and 0.671 in assay [2] (first compound 4 µM).

The values are drawn from the supplement of paper PMC10307832.
